Results as given in patent US12344863B2, “Method of producing stem cell-derived endothelial cells and uses thereof” (Emory University, priority 2016, dated 2025).

What was measured:
hESCs (H9) = experiment: Mesodermal differentiation of hPSCs with CHIR99021 (qRT-PCR, flow cytometry); format: cell-based, human
Description: A clinically compatible stepwise protocol was developed which follows endothelial development (FIG. 1A). To develop a fully defined system, KnockOut™ Serum Replacement substituted for animal serum and feeder cells. As a first step, two coating materials were compared (collagen and Matrigel™), and induced differentiation of hPSCs into the mesodermal lineage using CHIR99021, a GSK3β inhibitor which mimics Wnt activation. hESCs (H9) were plated onto dishes coated with 0.01% collagen or 10% Matrigel™ and were cultured for 3, 5, and 7 days in hESC medium with or without 3 µM CHIR99021. […] Flow cytometry analyses confirmed that the percentage of KDR+ cells was highest (51.2±4.3%) under these conditions.
The hESCs (H1, H7, and H9) and hiPSCs (BJ1 and PGP1 obtained from Dr. George Daley) were cultured in mTeSR™ 1 (STEMCELL Technologies) on 5% matrigel at 37° C., 5% CO2. For directed differentiation, enzymatically dissociated clumps of hPSCs (lower than passage 60) were cultured on 0.01% collagen-coated plates in DMEMF-12 including 20% Serum Replacement (SR) with or without addition of specific differentiation factors for 7-10 days. hPSCs were cultured on collagen coated plates for an additional 14 days.

[1] = test system: mesodermally differentiated hPSCs; experiment: Endothelial differentiation of mesodermally differentiated hPSCs with or without DLL4 (qRT-PCR, flow cytometry); format: cell-based, human
Source text: Flow cytometric analyses also confirmed increases in PECAM1, CDH5, and VWF (FIG. 1D) and decreases in PTPRC (CD45), CD34, KIT (CD117), and PROM1 (CD133). […] Similar results were found in three hESC lines (H1, H7, and H9) and two hiPSC lines (BJ1 and PGP1) by flow cytometry and qRT-PCR. […] Immunocytochemistry confirmed expression of EC markers VWF and CDH5 as well.

| Compound | percentage of KDR+ cells (hESCs (H9); hESCs (H9), collagen coating, 3 µM CHIR99021, 3 days, flow cytometry) [%] | POU5F1 (OCT4) expression (hESCs (H9); qRT-PCR) | expression of definitive ectoderm (SOX1) and endoderm (FOXA2) markers (hESCs (H9); qRT-PCR) | T (Brachyury) and KDR transcripts (hESCs (H9); qRT-PCR, collagen coating and CHIR99021 treatment for 3 days, vs Matrigel, 5 and 7 days, no CHIR99021) | PECAM1, CDH5, and VWF by flow cytometry ([1]; day 14, with vs without DLL4) | PTPRC (CD45), CD34, KIT (CD117), and PROM1 (CD133) by flow cytometry ([1]; day 14, with vs without DLL4) | KDR, PECAM1, CDH5 and VWF expression ([1]; qRT-PCR, day 14, addition of DLL4) |
| --- | --- | --- | --- | --- | --- | --- | --- |
| Cc1cnc(-c2cnc(NCCNc3ccc(C#N)cn3)nc2-c2ccc(Cl)cc2Cl)[nH]1 [CHIR99021, 6-[[2-[[4-(2,4-dichlorophenyl)-5-(5-methyl-1H-imidazol-2-yl)-2-pyrimidinyl]amino]ethyl]amino]-3-pyridinecarbonitrile] | 51.2±4.3 | reduced | not significantly changed | most highly expressed |  |  |  |
| DLL4: polypeptide comprising a mature human or mammalian peptide sequence encoded by a DLL4 gene; a Notch ligand |  |  |  |  | increases | decreases | further increased |
